Data on one molecule can be found in PMC3021692, “Synthesis and Pharmacological Evaluation of Novel Schiff Base Analogues of 3-(4-amino) Phenylimino) 5-fluoroindolin-2-one” (Journal of Young Pharmacists : JYP, 2010).

Common to all, as to format: in vivo
One series concerns Wistar albino mice. As to the kind of experiment: Analgesic activity, tail-flick technique. The settings on record: for Percent analgesic activity: mean ± SD (n = 6). On the procedure: (§1) The synthesized compounds were evaluated for analgesic, anti-inflammatory, and ulcerogenic index. […] The test compounds and the standard drugs were administered in the form of a suspension (1% carboxymethyl cellulose as a vehicle) by oral route for analgesic and anti-inflammatory but for ulcerogenicity studies by intraperitoneally as suspension in 10% v/v Tween-20. Each group consisted of six animals. The animals were procured from the C. L. Baid Metha College of pharmacy, Chennai, and were maintained in colony cages at 25 ±2°C, relative humidity of 45-55%, under a 12-h light and dark cycle; they were fed standard animal feed. All the animals were acclimatized for a week before use. The Institutional Animal Ethics Committee approved the protocol adopted for the experimentation of animals.
The analgesic activity was performed by tail-flick technique using Wistar albino mice (25-35 g) of either sex selected by the random sampling technique.[1314] Diclofenac sodium at a dose level of 10 mg/kg and 20 mg/kg was administered orally as reference drug for comparison. The test compounds at two dose levels (10, 20 mg/kg) were administered orally. The reaction time was recorded at 30 min, 1, 2, and 3 h after the treatment, and cut-off time was 10 s. The percent analgesic activity (PAA) was calculated by the following formula, where T1 is the reaction time (s) before treatment, and T2 is the reaction time (s) after treatment.

In series [1] the test system is Albino rats of Wistar strain. As to the kind of experiment: Evaluation of ulcerogenicity index (pylorus ligation). Also on record: scale not given here. The settings on record: test compounds 20 mg/kg intraperitoneally, pylorus ligated on fourth day, mean ± SD (n = 6). On the procedure:
The synthesized compounds were evaluated for analgesic, anti-inflammatory, and ulcerogenic index. […] The test compounds and the standard drugs were administered in the form of a suspension (1% carboxymethyl cellulose as a vehicle) by oral route for analgesic and anti-inflammatory but for ulcerogenicity studies by intraperitoneally as suspension in 10% v/v Tween-20. Each group consisted of six animals. The animals were procured from the C. L. Baid Metha College of pharmacy, Chennai, and were maintained in colony cages at 25 ±2°C, relative humidity of 45-55%, under a 12-h light and dark cycle; they were fed standard animal feed. All the animals were acclimatized for a week before use. The Institutional Animal Ethics Committee approved the protocol adopted for the experimentation of animals. Ulceration in rats was induced as described by Goyal et al. Albino rats of Wistar strain weighing 150-200 g of either sex were divided into various groups each of six animals.[16] Control group of animals was administered only with 10% v/v Tween 80 suspension intraperitonially. One group was administered with aspirin (German Remedies) intraperitoneally at a dose of 200 mg/kg once daily for 3 days. The remaining group of animals was administered with test compounds intraperitoneally at a dose of 20 mg/kg. On fourth day, Pylorus was ligated as per the method of Shay et al.[17] Animals were fasted for 36 h before the pylorus ligation procedure. Four hours after the ligation, animals were sacrificed. The stomach was removed and opened along with the greater curvature. Ulcer index was determined by the method of Ganguly and Bhatnagar.[18]

Series [2] relates to carrageenan-induced paw edema in rats. As to the kind of experiment: Anti-inflammatory activity, carrageenan-induced paw edema test. The settings on record: mean ± SD (n = 6). The protocol:
as §1
Anti-inflammatory activity was evaluated by carrageenan-induced paw edema test in rats.[15] Diclofenac sodium 10, 20 mg/kg was administered as a standard drug for comparison. The test compounds were administered at two dose levels (10 mg/kg, 20 mg/kg). The paw volumes were measured using the mercury displacement technique with the help of a plethysmograph (Model PLYAN; Buxco, USA) immediately before and 30 min, 1, 2, and 3 h after carrageenan injection. The percent inhibition of paw edema was calculated using the following formula.
Percent inhibition I = 100 1− (a−x) / (b−y)
Where x is the mean paw volume of rats before the administration of carrageenan and test compounds or reference compound (test group), a is the mean paw volume of rats after the administration of carrageenan in the test group (drug treated), b is the mean paw volume of rats after the administration of carrageenan in the control group, y is the mean paw volume of rats before the administration of carrageenan in the control group.

`O=C1Nc2ccc(F)cc2C1=Nc1ccc(N=Cc2ccccc2)cc1` [Compound N6]: the Percent analgesic activity in the series on Wistar albino mice (10 mg/kg oral, 30 min after treatment) was found to be 37 ± 1.87 %; in the series on Wistar albino mice (10 mg/kg oral, 1 h after treatment) it was 46 ± 1.42 %; with Wistar albino mice (10 mg/kg oral, 2 h after treatment) it was 49 ± 1.15 %; with Wistar albino mice (10 mg/kg oral, 3 h after treatment), 36 ± 1.96 %; in the series on Wistar albino mice (20 mg/kg oral, 30 min after treatment), 49 ± 1.83 %; with Wistar albino mice (20 mg/kg oral, 1 h after treatment), 54 ± 1.76 %. For the same molecule, the Percent analgesic activity in the series on Wistar albino mice (20 mg/kg oral, 2 h after treatment) is 59 ± 1.18 %; in the series with Wistar albino mice (20 mg/kg oral, 3 h after treatment) it was 43 ± 1.47 %. Also, in the series on Wistar albino mice (tail-flick, structure-activity comparison within the series / vs diclofenac sodium), the “Analgesic activity (in words)” value is reported as “decreasing activity”. In series [1], this molecule had a Ulcer index of 0.84 ± 1.78. Further, the “Percent anti-inflammatory activity (percent inhibition of paw edema)” value came out at 37 ± 1.67 % in series [2] (10 mg/kg oral, 30 min after carrageenan); 42 ± 1.42 % in series [2] (10 mg/kg oral, 1 h after carrageenan); 49 ± 1.58 % in series [2] (10 mg/kg oral, 2 h after carrageenan); 36 ± 1.96 % in series [2] (10 mg/kg oral, 3 h after carrageenan); 46 ± 1.48 % in series [2] (20 mg/kg oral, 30 min after carrageenan); 55 ± 1.76 % in series [2] (20 mg/kg oral, 1 h after carrageenan). Besides, the “Percent anti-inflammatory activity (percent inhibition of paw edema)” value in series [2] (20 mg/kg oral, 2 h after carrageenan) is 59 ± 1.93 %; in series [2] (20 mg/kg oral, 3 h after carrageenan), 38 ± 1.47 %.
